From ChEMBL document CHEMBL3046425, “Synthesis of Antifungal 2-Anilino-4-phenylthiazoles and Their Inhibitory Activities on Sterol Biosynthesis” (J Pestic Sci, 2001)
In brackets after ≈: the same amount, converted by molar mass.

Tests used:
Botrytis cinerea [1] = experiment: Antifungal activity against Botryotinia fuckeliana; assay type: functional, organism-based
Pyricularia oryzae = experiment: Antifungal activity against Magnaporthe oryzae; assay type: functional, organism-based
[2] = tested on: Trichophyton mentagrophytes; experiment: Antifungal activity against Trichophyton mentagrophytes; assay type: functional
[3] = tested on: Trichophyton mentagrophytes; experiment: Antifungal activity against Trichophyton mentagrophytes assessed as accumulation of squalene using [2-14C]acetate at 1 x 10^-9 M; assay type: functional
[4] = tested on: Trichophyton mentagrophytes; experiment: Antifungal activity against Trichophyton mentagrophytes assessed as accumulation of squalene using [2-14C]acetate at 1 x 10^-7 M; assay type: functional
Botrytis cinerea [5] = experiment: Antifungal activity against Botryotinia fuckeliana assessed as accumulation of squalene using [2-14C]acetate at 3 x 10^-5 M; assay type: functional
[6] = tested on: Trichophyton mentagrophytes; experiment: Antifungal activity against Trichophyton mentagrophytes assessed as accumulation of squalene using [2-14C]acetate at 1 x 10^-8 M; assay type: functional
Botrytis cinerea [7] = experiment: Antifungal activity against Botryotinia fuckeliana assessed as accumulation of squalene using [2-14C]acetate at 1 x 10^-5 M; assay type: functional
Botrytis cinerea [8] = experiment: Antifungal activity against Botryotinia fuckeliana assessed as accumulation of squalene using [2-14C]acetate at 1 x 10^-6 M; assay type: functional
Botrytis cinerea [9] = experiment: Antifungal activity against Botryotinia fuckeliana assessed as accumulation of squalene using [2-14C]acetate at 1 x 10^-7 M; assay type: functional
[10] = target: T1, Squalene epoxidase ERG1 (Saccharomyces cerevisiae S288c) (UniProt P32476); experiment: Inhibition of squalene epoxidase in Saccharomyces cerevisiae IFO 1346 assessed as incorporation of [2-14C]mevalonate into 4alpha-methyl sterols at 1 x 10^-5 M after 3 hr; parameters: scale not given: the % may be the effect or the level left
T1 sequence (whole entry): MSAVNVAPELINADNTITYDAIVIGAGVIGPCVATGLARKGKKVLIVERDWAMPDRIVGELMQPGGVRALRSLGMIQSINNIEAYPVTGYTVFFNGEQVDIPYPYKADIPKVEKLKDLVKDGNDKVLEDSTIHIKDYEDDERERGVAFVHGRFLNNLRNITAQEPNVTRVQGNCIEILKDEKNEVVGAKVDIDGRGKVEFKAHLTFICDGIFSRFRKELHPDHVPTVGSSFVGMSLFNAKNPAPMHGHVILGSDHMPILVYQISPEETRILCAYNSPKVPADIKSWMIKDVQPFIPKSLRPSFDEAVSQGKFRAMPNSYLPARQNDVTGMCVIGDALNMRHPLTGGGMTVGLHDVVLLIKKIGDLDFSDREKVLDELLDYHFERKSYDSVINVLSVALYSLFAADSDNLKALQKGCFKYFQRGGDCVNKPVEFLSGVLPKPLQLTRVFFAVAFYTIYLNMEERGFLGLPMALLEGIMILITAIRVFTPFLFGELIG

[11] = target: T1, Squalene epoxidase ERG1 (Saccharomyces cerevisiae S288c); experiment: Inhibition of squalene epoxidase in Saccharomyces cerevisiae IFO 1346 assessed as incorporation of [2-14C]mevalonate into 4,4-dimethyl sterols at 1 x 10^-5 M after 3 hr; parameters: scale not given: the % may be the effect or the level left
[12] = target: T1, Squalene epoxidase ERG1 (Saccharomyces cerevisiae S288c); experiment: Inhibition of squalene epoxidase in Saccharomyces cerevisiae IFO 1346 assessed as incorporation of [2-14C]mevalonate into 4-desmethyl sterols at 1 x 10^-5 M after 3 hr; parameters: scale not given: the % may be the effect or the level left
[13] = target: T1, Squalene epoxidase ERG1 (Saccharomyces cerevisiae S288c); experiment: Inhibition of squalene epoxidase in Saccharomyces cerevisiae IFO 1346 assessed as incorporation of [2-14C]mevalonate into 2,3-oxidosqualene at 1 x 10^-5 M after 3 hr; parameters: scale not given: the % may be the effect or the level left
[14] = target: T1, Squalene epoxidase ERG1 (Saccharomyces cerevisiae S288c); experiment: Inhibition of squalene epoxidase in Saccharomyces cerevisiae IFO 1346 assessed as incorporation of [2-14C]mevalonate into squalene at 1 x 10^-5 M after 3 hr; parameters: scale not given: the % may be the effect or the level left

In the case of `Fc1cccc(F)c1-c1csc(Nc2ccc(Cl)cc2)n1`, the EC50 (Botrytis cinerea [1]) was > 100 µg/mL, the EC50 (Pyricularia oryzae) was 1 µg/mL (≈ 3.1 µM) and the MIC [2] was 0.3 µg/mL (≈ 0.929 µM).

`Clc1ccc(Nc2nc(-c3ccc4ccccc4c3)cs2)cc1` was tested, and the Activity [3] was >35%, the EC50 (Botrytis cinerea [1]) was > 100 µg/mL and the EC50 (Pyricularia oryzae) was > 100 µg/mL. For the same compound, the Activity [4] was 38.7% and the MIC [2] was > 100 µg/mL.

`Fc1ccc(Nc2nc(-c3c(Cl)cccc3Cl)cs2)cc1` gave an EC50 (Botrytis cinerea [1]) of 0.2 µg/mL (≈ 0.59 µM), an EC50 (Pyricularia oryzae) of 3 µg/mL (≈ 8.84 µM) and an MIC [2] of 0.1 µg/mL (≈ 0.295 µM).

With `Clc1ccc(Nc2nc(-c3c(Cl)cccc3Cl)ns2)cc1` the EC50 (Botrytis cinerea [1]) was 0.2 µg/mL (≈ 0.561 µM), the EC50 (Pyricularia oryzae) was 0.6 µg/mL (≈ 1.68 µM) and the MIC [2] was 0.1 µg/mL (≈ 0.28 µM).

In the case of `Clc1ccc(Nc2nc(-c3c(Cl)cccc3Cl)cs2)cc1Cl`, the EC50 (Botrytis cinerea [1]) was 1 µg/mL (≈ 2.56 µM), the EC50 (Pyricularia oryzae) was 1 µg/mL (≈ 2.56 µM) and the MIC [2] was 0.1 µg/mL (≈ 0.256 µM).

Work on `FC(F)(F)c1ccc(Nc2nc(-c3c(Cl)cccc3Cl)cs2)cc1` yielded an EC50 (Botrytis cinerea [1]) of 0.3 µg/mL (≈ 0.771 µM), an EC50 (Pyricularia oryzae) of 0.3 µg/mL (≈ 0.771 µM) and an MIC [2] of 0.03 µg/mL (≈ 0.0771 µM).

`CN(C)c1ccc(Nc2nc(-c3c(Cl)cccc3Cl)cs2)cc1` was tested, and the EC50 (Botrytis cinerea [1]) was > 100 µg/mL, the EC50 (Pyricularia oryzae) was > 100 µg/mL and the MIC [2] was 1 µg/mL (≈ 2.74 µM).

`CN(c1ccc(Cl)cc1)c1nc(-c2c(Cl)cccc2Cl)cs1` was tested, and the EC50 (Botrytis cinerea [1]) was > 100 µg/mL, the EC50 (Pyricularia oryzae) was 1 µg/mL (≈ 2.7 µM) and the MIC [2] was 3 µg/mL (≈ 8.11 µM). For the same compound, the Activity (Botrytis cinerea [5]) was 2%.

`Clc1ccc(Nc2nc(-c3c(Cl)cc(Cl)cc3Cl)cs2)cc1` showed an EC50 (Botrytis cinerea [1]) of 0.05 µg/mL (≈ 0.128 µM), an EC50 (Pyricularia oryzae) of 0.3 µg/mL (≈ 0.769 µM) and an MIC [2] of 0.1 µg/mL (≈ 0.256 µM).

With `Clc1ccc(Nc2nc(-c3cccc4ccccc34)cs2)cc1` the Activity [6] was 11.7%, the Activity [3] was 25.3% and the EC50 (Botrytis cinerea [1]) was 0.3 µg/mL (≈ 0.891 µM). The EC50 (Pyricularia oryzae) was 2 µg/mL (≈ 5.94 µM), the Activity [4] was 83.1% and the MIC [2] was 0.1 µg/mL (≈ 0.297 µM).

`Cc1ccc(Nc2nc(-c3c(Cl)cccc3Cl)cs2)cc1` gave an EC50 (Botrytis cinerea [1]) of 0.3 µg/mL (≈ 0.895 µM), an EC50 (Pyricularia oryzae) of 3 µg/mL (≈ 8.95 µM) and an MIC [2] of 0.1 µg/mL (≈ 0.298 µM).

With `Clc1ccc(Nc2nc(-c3c(Cl)cccc3Cl)cs2)c(Cl)c1` the EC50 (Botrytis cinerea [1]) was > 100 µg/mL, the EC50 (Pyricularia oryzae) was 5 µg/mL (≈ 12.8 µM) and the MIC [2] was 0.3 µg/mL (≈ 0.769 µM).

Work on `COc1cccc(OC)c1-c1csc(Nc2ccc(Cl)cc2)n1` yielded an Activity [6] of 70.6%, an Activity [3] of 30.5% and an EC50 (Botrytis cinerea [1]) of 0.2 µg/mL (≈ 0.577 µM). It also gave an Activity (Botrytis cinerea [7]) of 79.8%, an Activity (Botrytis cinerea [8]) of 46.9% and an EC50 (Pyricularia oryzae) of 5 µg/mL (≈ 14.4 µM). The Activity [4] was 84.1%, the MIC [2] was 0.03 µg/mL (≈ 0.0865 µM) and the Activity (Botrytis cinerea [9]) was 2.3%.

`Clc1ccc(Nc2nc(-c3ccccc3)cs2)cc1` was tested, and the EC50 (Botrytis cinerea [1]) was > 100 µg/mL, the Activity (Botrytis cinerea [7]) was 2% and the EC50 (Pyricularia oryzae) was 1 µg/mL (≈ 3.49 µM). For the same compound, the MIC [2] was 3 µg/mL (≈ 10.5 µM) and the Activity (Botrytis cinerea [5]) was 14.3%.

With `CCCOC/C(=N\c1ccc(Cl)cc1C(F)(F)F)n1ccnc1` the Activity [10] was 10.3%, the Activity [11] was 54% and the Activity [12] was 12.6%. For the same compound, the Activity [13] was 2.9% and the Activity [14] was 19.3%.

`Clc1ccc(Oc2nc(-c3c(Cl)cccc3Cl)cs2)cc1` gave an EC50 (Botrytis cinerea [1]) of 0.5 µg/mL (≈ 1.4 µM), an Activity (Botrytis cinerea [7]) of 61.1% and an EC50 (Pyricularia oryzae) of 1 µg/mL (≈ 2.8 µM). It also gave an MIC [2] of 1 µg/mL (≈ 2.8 µM) and an Activity (Botrytis cinerea [5]) of 68%.

In the case of `COc1ccc(Br)c(OC)c1-c1csc(Nc2ccc(Cl)cc2)n1`, the EC50 (Botrytis cinerea [1]) was > 100 µg/mL, the EC50 (Pyricularia oryzae) was 0.5 µg/mL (≈ 1.17 µM) and the MIC [2] was 3 µg/mL (≈ 7.05 µM).

For `Clc1cccc(Cl)c1-c1csc(Nc2ccccc2)n1`, the EC50 (Botrytis cinerea [1]) was > 100 µg/mL, the EC50 (Pyricularia oryzae) was 2 µg/mL (≈ 6.23 µM) and the MIC [2] was 1 µg/mL (≈ 3.11 µM).

For `FC(F)(F)Oc1ccc(Nc2nc(-c3c(Cl)cccc3Cl)cs2)cc1`, the EC50 (Botrytis cinerea [1]) was 0.5 µg/mL (≈ 1.23 µM), the EC50 (Pyricularia oryzae) was 0.3 µg/mL (≈ 0.74 µM) and the MIC [2] was 0.03 µg/mL (≈ 0.074 µM).

For `C[S+]([O-])c1ccc(Nc2nc(-c3c(Cl)cccc3Cl)cs2)cc1` (stereo not drawn), the EC50 (Botrytis cinerea [1]) was > 100 µg/mL, the EC50 (Pyricularia oryzae) was 2 µg/mL (≈ 5.22 µM) and the MIC [2] was 30 µg/mL (≈ 78.3 µM).
